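Grown in 96-well plates, cells were treated for 48 hours with each compound at five concentrations. Insufficient inhibition: endpoint recorded as highest concentration tested. At the TGI there is no net growth.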
Tests used:
Assay in all cases: growth of human tumour cells (NCI), 48 h
[1] = tested on: 786-0 renal
[2] = tested on: A498 renal
[3] = tested on: A549 NSCLC
[4] = tested on: ACHN renal
[5] = tested on: BT-549 breast
[6] = tested on: CAKI-1 renal
[7] = tested on: CCRF-CEM leukemia
[8] = tested on: COLO 205 colon
[9] = tested on: DU-145 prostate
[10] = tested on: EKVX NSCLC
[11] = tested on: HCC-2998 colon
[12] = tested on: HCT-116 colon
[13] = tested on: HCT-15 colon
[14] = tested on: HL-60(TB) leukemia
[15] = tested on: HOP-62 NSCLC
[16] = tested on: HOP-92 NSCLC
[17] = tested on: HS 578T breast
[18] = tested on: HT29 colon
[19] = tested on: IGROV1 ovarian
[20] = tested on: K-562 leukemia
[21] = tested on: KM12 colon
[22] = tested on: LOX IMVI melanoma
[23] = tested on: M14 melanoma
[24] = tested on: MALME-3M melanoma
[25] = tested on: MCF7 breast
[26] = tested on: MDA-MB-231 breast
[27] = tested on: MDA-MB-435
[28] = tested on: MDA-N
[29] = tested on: MOLT-4 leukemia
[30] = tested on: NCI-H226 lung
[31] = tested on: NCI-H23 lung
[32] = tested on: NCI-H460 lung
[33] = tested on: NCI-H522 lung
[34] = tested on: NCI/ADR-RES ovarian
[35] = tested on: OVCAR-3 ovarian
[36] = tested on: OVCAR-4 ovarian
[37] = tested on: OVCAR-5 ovarian
[38] = tested on: OVCAR-8 ovarian
[39] = tested on: PC-3 prostate
[40] = tested on: RPMI-8226 leukemia
[41] = tested on: SF-295 CNS
[42] = tested on: SF-539 CNS
[43] = tested on: SK-MEL-2 melanoma
[44] = tested on: SK-MEL-28 melanoma
[45] = tested on: SK-MEL-5 melanoma
[46] = tested on: SK-OV-3 ovarian
[47] = tested on: SN12C renal
[48] = tested on: SNB-19 CNS
[49] = tested on: SNB-75 CNS
[50] = tested on: SR leukemia
[51] = tested on: SW-620 colon
[52] = tested on: T-47D breast
[53] = tested on: TK-10 renal
[54] = tested on: U251 CNS
[55] = tested on: UACC-257 melanoma
[56] = tested on: UACC-62 melanoma
[57] = tested on: UO-31 renal
[58] = tested on: RXF 393 renal
[59] = tested on: SF-268 CNS

Measured: TGI

CCOC(=O)C(CS)NC(=O)CCCCCCCC(=O)NC(CS)C(=O)OCC (stereo not drawn)
> 100 µM: [1] | [2] | [3] | [4] | [5] | [6] | [7] | [8] | [9] | [10] | [11] | [12] | [13] | [14] | [15] | [16] | [17] | [18] | [19] | [20] | [21] | [22] | [23] | [24] | [25] | [26] | [27] | [28] | [29] | [30] | [31] | [32] | [33] | [34] | [35] | [36] | [37] | [38] | [39] | [40] | [41] | [42] | [43] | [44] | [45] | [46] | [47] | [48] | [49] | [50] | [51] | [52] | [53] | [54] | [55] | [56] | [57]

Cc1ccc(C(=O)/C(C#N)=C/Nc2c(C)n(C)n(-c3ccccc3)c2=O)cc1
> 100 µM: [1] | [2] | [3] | [4] | [5] | [6] | [7] | [8] | [9] | [10] | [11] | [12] | [13] | [14] | [15] | [16] | [17] | [18] | [19] | [20] | [21] | [22] | [23] | [24] | [25] | [26] | [27] | [28] | [29] | [30] | [31] | [32] | [33] | [35] | [36] | [37] | [39] | [40] | [58] | [59] | [41] | [42] | [43] | [44] | [45] | [46] | [47] | [48] | [50] | [51] | [52] | [53] | [54] | [55] | [56] | [57]
